From ChEMBL document CHEMBL1152093, “The effect of propargylic substitution on the activation and aromatization of enediynes” (Bioorg Med Chem Lett, 1994) come the findings set out here.

Assay [1] relates to Mus musculus. The experiment in a line: Compound was tested in vivo in mice against Madison 109 lung carcinoma cell line (M109) in a pretreated group over a control group at 128 mg/kg/inj. In kind it is functional.
The test system of a further assay is HCT-116. The experiment in a line: In vitro cytotoxicity against 116 human colon tumor cell line (HCT116). Type of assay: functional, cell-based.
Assay [2] has as its system Mus musculus. The experiment in a line: Compound was tested in vivo in mice against Madison 109 lung carcinoma cell line (M109) in a pretreated group over a control group at 16 mg/kg/inj. Type of assay: functional.
Assay [3] relates to Mus musculus. As to the kind of experiment: Compound was tested in vivo in mice against Madison 109 lung carcinoma cell line (M109) in a pretreated group over a control group at 32 mg/kg/inj. In kind it is functional.
For assay [4], the system named is Mus musculus. The experiment in a line: Compound was tested in vivo in mice against Madison 109 lung carcinoma cell line (M109) in a pretreated group over a control group at 64 mg/kg/inj. Type of assay: functional.

pIC50: −log10 of the molar value.

`CC(C)(C)[Si](C)(C)O[C@@]12C#C/C=C\C#C[C@H](O)C(=CCC1)C2=O`: in the assay with Mus musculus [1], the T/C (usually the result in the treated group divided by that in the control group, in per cent) was determined as 115%. Further, the pIC50 (in general, −log10 of the IC50, conventionally taken in molar units) in the assay with HCT-116 was less than 5.70.
Take `CC(C)(C)[Si](C)(C)O[C@@]12C#C/C=C\C#C[C@@H](O)C(=CCC1)C2=O`: the pIC50 in the assay on HCT-116 is 7.00. In addition, the T/C with Mus musculus [2] amounted to 144%.
In the case of `CC(C)(C)[Si](C)(C)O[C@@]12C#C/C=C\C#CCC(=CCC1)C2=O`, in the assay on HCT-116, the pIC50 was less than 5.70.
With `CC(C)(C)[Si](C)(C)O[C@@]12C#C/C=C\C#C[C@@H](F)C(=CCC1)C2=O`, in the assay on HCT-116, the pIC50 is 7.62. Besides, the T/C in the assay with Mus musculus [3] was determined as 112%.
With `CC(C)(C)[Si](C)(C)O[C@@]12C#C/C=C\C#C[C@@H](OC(=O)COc3ccccc3)C(=CCC1)C2=O`, in the assay with HCT-116, the pIC50 is 6.72. In addition, in the assay with Mus musculus [4], the T/C is recorded as 143%.
